Reference: patent publication US20070202085A1, “Systems and methods for monitoring immune responses and predicting outcomes in transplant recipients” (Renovar Incorporated, priority 2006, published 2007)
“And” between values parts separate entries of the source, which are not always exact repeats. Identical values can stand only once.

Assays:
[1] = system: CD3+, CD4+ and CD8+ recipient T cells; test: CFSE-MLR proliferation assay with recipient PBMC; format: cell-based, human; details: patient UW19, response to third party antigen, 12 months
From the text: To examine the proliferative response of host T cells to donor antigen, purified responder PBMC's were labeled with CFSE. In an effort to keep the APC source constant, only PBMC's from living donors and third parties were used.
For simplicity, the loss of CFSE intensity was designated “percent proliferation” or “percent CFSE low” (e.g., even though, generally, this is a measure of the actual number of daughter cells initially involved in the response).

[2] = system: kidney allograft; test: Protocol kidney biopsy after transplantation; format: in vivo, human; details: for M12 biopsy: kidney biopsy 12 months after transplantation, per patient
Protocol: (§1) Patients and Protocol Therapy. Primary renal allograft patients received a non-HLA-identical kidney from either cadaveric or living donors. Subjects were 18-60 years of age and had between 1-6 MHC antigen mismatches with the kidney allograft. Kidney transplant recipients were given CAMPATH-1H (Alemtuzumab, ILEX Oncology, Inc.) at day −1 and day 0 of transplant (40 mg total dose), followed by long-term treatment with rapamycin at levels averaging 9 ng/ml. […] Another […] patients were enrolled in the control arm. The latter group received anti-CD25 (Basiliximab, Novartis, East Hanover, N.J.) induction therapy, along with conventional long-term immunosuppressants (CsA, steroids, and MMF). All patients gave written informed consent to participate in the study. The protocol was given approval by the Institutional Review Board at the University of Wisconsin-Madison.
Among the 15 CAMPATH-treated recipients, 10 used a single drug (9 with Sirolimus and 1 with Tacrolimus) for their maintenance immunosuppressive therapy. […] In the control group, all 8 patients were treated with a combination of CsA, MMF and prednisone for their immunosuppressive maintenance.

[3] = system: recipient T cells (alloreactivity to donor antigen); test: GM-CSF kinetics assay in the 5-day CFSE-MLR of renal allograft patients; format: cell-based, human; parameters: key: HYPO: hyporesponsive; EQL: equal response to donor and third-party antigen; HYPR: hyperresponsive to donor Ag; UN: no response to donor Ag; details: per patient, month 12, response to donor versus third-party antigen
Protocol: CFSE-MLR Assay. Blood was collected at 12 months post-transplant, and PBMC's purified by Ficoll gradient separation. Recipient PBMC's were labeled with 5.0 μM CFSE for 10 minutes at 37° C., upon which 1 ml of cold FCS was added to stop further staining. Cells were then washed once in complete media, and used as responder cells in an MLR in which both proliferation and kinetics of cytokine expression were measured in response to irradiated donor, third party, or autologous stimulator PBMC's. The number of class I and class II MHC mismatches between host/donor and host/third party were kept as consistent as possible with the available third parties from which to choose. A total of 2×10^5 responder and 2×10^5 stimulator cells/well were added to a 96-well round-bottom plate, in a total of 200 μl/well complete RPMI with 15% FCS. […] On day 5, T cell proliferation was measured by flow cytometry using PE-conjugated anti-CD3, CD4, and CD8 antibodies. Live cells were gated out by PI, and subsequent PE-positive cells in the lymphocyte gate were analyzed for their loss of CFSE intensity. […] Proliferation was analyzed using FlowJo software (Tree Star, Inc.).
Cytokine Kinetics Test. Cytokine expression levels in the MLR supernatants were measured using a multi-cytokine fluorescent bead detection system (BeadLyte, Upstate, Inc.). […]

[4] = system: peripheral blood T cells (CD3), B cells (CD20), monocytes (CD14), lymphocytes; details: renal allograft recipients, at the outset; cited from earlier work
[5] = system: peripheral blood T cells (CD3), B cells (CD20), monocytes (CD14), lymphocytes; test: Leukocyte repopulation in peripheral blood of renal allograft patients; format: in vivo, human
Protocol: as §1
In renal allograft recipients treated with CAMPATH-1H, immunodepletion is profound, with a 2-3 log reduction in peripheral lymphocytes at the outset (See, e.g., Brett et al., Immunology 1996, 88,13). […] Although monocytes and B cells recovered to baseline numbers by 3 and 12-months, respectively, T cell levels were slow to repopulate, recovering to approximately 50% baseline by 36 months. CD4+ and CD8+ T cell subsets were at an approximate 2:1 ratio pre-transplant, yet CD8+ T cells recovered at a relatively constant 1:1 ratio with CD4+ cells in CAMPATH-treated patients (See FIG. 6b).

[6] = system: recipient T cells (alloreactivity to donor antigen); test: IFN-γ kinetics assay in the 5-day CFSE-MLR of renal allograft patients; format: cell-based, human; parameters: key to IFN-γ assay: HYPO: hyporesponsive; EQL: equal response to donor and third-party antigen; HYPR: hyperresponsive to donor Ag; UN: no response to donor Ag; details: for IFN-γ assay: per patient, month 12, response to donor versus third-party antigen
Protocol: CFSE-MLR Assay. Blood was collected at 12 months post-transplant, and PBMC's purified by Ficoll gradient separation. Recipient PBMC's were labeled with 5.0 μM CFSE for 10 minutes at 37° C., upon which 1 ml of cold FCS was added to stop further staining. Cells were then washed once in complete media, and used as responder cells in an MLR in which both proliferation and kinetics of cytokine expression were measured in response to irradiated donor, third party, or autologous stimulator PBMC's. The number of class I and class II MHC mismatches between host/donor and host/third party were kept as consistent as possible with the available third parties from which to choose. A total of 2×10^5 responder and 2×10^5 stimulator cells/well were added to a 96-well round-bottom plate, in a total of 200 μl/well complete RPMI with 15% FCS. Cultures were set up in quintuplet wells such that the supernatants could be collected every 24 hours during the 5-day MLR. On day 5, T cell proliferation was measured by flow cytometry using PE-conjugated anti-CD3, CD4, and CD8 antibodies. Live cells were gated out by PI, and subsequent PE-positive cells in the lymphocyte gate were analyzed for their loss of CFSE intensity. On average, 4000 live lymphocytes were acquired for analysis using CellQuest software and a FACSCAN flow cytometer. Proliferation was analyzed using FlowJo software (Tree Star, Inc.).
Cytokine Kinetics Test. Cytokine expression levels in the MLR supernatants were measured using a multi-cytokine fluorescent bead detection system (BeadLyte, Upstate, Inc.). Fifty μl of Day 1-5 supernatants were utilized to analyze the cytokines: IL-1β, IL-2, IL-4, IL-6, IL-8, IL-10, IL-12, GM-CSF, TNF-α, and IFN-γ.
Additional information was obtained from the 5-day CFSE-MLR by collecting supernatants at 24-hour intervals and analyzing them for the expression of IFN-γ. The kinetic patterning gave a comprehensive picture of alloreactivity which could be categorized into 4 distinct groups: 1) patients who responded equally well to donor and third party antigen, 2) those who were hypo-responsive to donor, 3) those who were hyper-responsive to donor, and 4) those who were completely unresponsive to donor as opposed to third party antigen (See FIG. 4). […] Statistically, there was no bias in the hypo- (P=0.51) or hyper-responsive (P=0.73) groups using the 1-tailed Fisher's exact test. […] Therefore, the donor unresponsiveness of these 4 patients cannot simply be attributed to low T cell counts. Taken together, the present invention provides that CAMPATH-rapamycin immunotherapy promotes T cell unresponsiveness in at least a subset of renal allograft recipients.

[7] = maintenance Tacrolimus, prednisone
[8] = IFN-γ kinetics, 12 months, n=15 Campath, n=8 Control

Substance: Campath: humanized monoclonal antibody that binds CD52; induction therapy followed by long-term rapamycin
- percent proliferation of CD3+ cells [1]: 6.7%
- percent proliferation of CD4+ cells [1]: 7.1%
- percent proliferation of CD8+ cells [1]: 5.1%
- M12 biopsy [2]: normal histology
- M12 biopsy ([2]; maintenance Sirolimus): Normal
- M12 biopsy ([2]; maintenance Sirolimus, MMF): C4d+, humoral rejection
- M12 biopsy ([2]; maintenance Tacrolimus): Normal
- M12 biopsy ([2]; maintenance Tacrolimus, MMF): Normal
- M12 biopsy [2, 7]: Acute rejection Banff 1A
- M06 biopsy ([2]; kidney biopsy at month 6, M12 biopsy declined): M06 Biopsy Normal Declined M12
- GM-CSF assay [3]: UN (4×) and HYPO (7×) and HYPR (2×) and EQL^a and EQL
- reduction in peripheral lymphocytes [4]: 2-3 log
- T cell levels recovered ([5]; by 36 months): approximately 50 % baseline
- lymphocyte repopulation (total lymphocyte count versus pre-transplant) ([5]; month 12 post-transplant): below 50 % baseline
- time at which B cells recovered to baseline numbers ([5]; peripheral blood, 29 patients): ≤ 12 months
- time at which monocytes recovered to baseline numbers ([5]; peripheral blood, 29 patients): ≤ 3 months
- Donor-specific nonresponsiveness (number of patients) [6, 8]: 4
- Equal response (number of patients) [6, 8]: 1
- Hyper-response (number of patients) [6, 8]: 2
- Hypo-response (number of patients) [6, 8]: 8
- Hyper-response (number of patients) ([6]; IFN-γ kinetics, 12 months, n=15 Campath, n=8 Control, listed as CAMPATH): Two
- IFN-γ assay ([6]; maintenance Sirolimus): HYPO (3×) and HYPR (2×) and UN (3×) and EQL
- IFN-γ assay ([6]; maintenance Sirolimus, MMF): HYPO
- IFN-γ assay ([6]; maintenance Tacrolimus): HYPO
- IFN-γ assay ([6]; maintenance Tacrolimus, MMF): HYPO
- IFN-γ assay ([6]; maintenance Tacrolimus, MMF, prednisone): HYPO
- IFN-γ assay [6, 7]: UN
